Data published in publication PMC8697972, “New Auranofin Analogs with Antibacterial Properties against Burkholderia Clinical Isolates” (Antibiotics, 2021).
Where two headings read alike, the source gives them in different places. Marks after values point to notes of the source that are not given here.

Columns and labels:
[1] = tested on: B. cenocepacia K56-2; assay type: cell-based, Burkholderia cenocepacia; conditions: B. cenocepacia K56-2; CAMHB, 18 h, 37 °C
[2] = tested on: B. cenocepacia 140485; assay type: cell-based, Burkholderia cenocepacia; conditions: B. cenocepacia 140485
[3] = tested on: B. mallei; assay type: cell-based, Burkholderia mallei; conditions: range over B. mallei strains
[4] = tested on: B. lata BCC6; assay type: cell-based, Burkholderia lata; conditions: B. lata BCC6
[5] = tested on: B. contaminans FFH-2050MA; assay type: cell-based, Burkholderia contaminans; conditions: B. contaminans FFH-2050MA
[6] = tested on: B. contaminans FFH-4004; assay type: cell-based, Burkholderia contaminans; conditions: B. contaminans FFH-4004
[7] = tested on: B. mallei China 7 (NBL 7); assay type: cell-based, Burkholderia mallei
[8] = tested on: B. mallei China 5 (NBL 4); assay type: cell-based, Burkholderia mallei
[9] = tested on: B. pseudomallei MSHR465a; assay type: cell-based, Burkholderia pseudomallei
[10] = tested on: B. mallei Ivan (NCTC 10230); assay type: cell-based, Burkholderia mallei
[11] = tested on: B. pseudomallei 1710b; assay type: cell-based, Burkholderia pseudomallei
[12] = tested on: members of the Bcc; assay: MIC, summary over Bcc panel; assay type: cell-based, Burkholderia cepacia complex; conditions: text summary over Bcc panel (most of the MICs)
[13] = tested on: B. pseudomallei HBPUB10134a; assay type: cell-based, Burkholderia pseudomallei
[14] = tested on: Gram-negative bacteria; parameters: method as in PMID 25831516; conditions: cited from earlier work
[15] = tested on: B. contaminans MF16; assay type: cell-based, Burkholderia contaminans; conditions: B. contaminans MF16
[16] = tested on: B. pseudomallei; assay type: cell-based, Burkholderia pseudomallei
[17] = tested on: B. dolosa CEP021; assay type: cell-based, Burkholderia dolosa; conditions: B. dolosa CEP021
[18] = tested on: B. ubonensis LMG 20358; assay type: cell-based, Burkholderia ubonensis; conditions: B. ubonensis LMG 20358
[19] = tested on: B. multivorans ATCC17616; assay type: cell-based, Burkholderia multivorans; conditions: B. multivorans ATCC17616
[20] = tested on: Acinetobacter baumannii ATCC 17978; assay type: cell-based
[21] = tested on: B. cenocepacia K56-2; assay: In vivo antibiotic activity in infected C. elegans; conditions: C. elegans infected with B. cenocepacia K56-2, data not shown
[22] = tested on: Staphylococcus aureus ATCC 27700; assay: MBC (minimum bactericidal concentration)
[23] = tested on: B. pseudomallei MSHR305; assay type: cell-based, Burkholderia pseudomallei
[24] = tested on: Stenotrophomonas maltophilia DH57; assay: MBC (minimum bactericidal concentration)
[25] = tested on: Staphylococcus aureus 107094; assay type: cell-based
[26] = tested on: Burkholderia cenocepacia K56-2; assay: MBC (minimum bactericidal concentration); assay type: cell-based; conditions: MBC determined from exponential time kill curve
[27] = tested on: Achromobacter xylosoxidans ACH03; assay type: cell-based
[28] = tested on: Achromobacter xylosoxidans ACH03; assay: MBC (minimum bactericidal concentration)
[29] = tested on: Staphylococcus aureus 107094; assay: MBC (minimum bactericidal concentration)
[30] = tested on: B. cenocepacia K56-2; assay: Persister frequency assay; conditions: 24 h
[31] = tested on: Stenotrophomonas maltophilia K279a; assay type: cell-based
[32] = tested on: Escherichia coli 120955; assay type: cell-based
[33] = tested on: Escherichia coli 120955; assay: MBC (minimum bactericidal concentration)
[34] = tested on: Klebsiella pneumoniae 120310; assay: MBC (minimum bactericidal concentration)
[35] = tested on: Stenotrophomonas maltophilia DH57; assay type: cell-based
[36] = tested on: B. cenocepacia K56-2; assay: MIC in 50% human serum; assay type: cell-based, Burkholderia cenocepacia
[37] = tested on: Galleria mellonella larvae; assay: Galleria toxicity; conditions: for percent survival of Galleria larvae: 10 mg/kg
[38] = tested on: Staphylococcus aureus ATCC 27700; assay type: cell-based
[39] = tested on: Escherichia vulneris CEP511; assay type: cell-based
[40] = tested on: Stenotrophomonas maltophilia K279a; assay: MBC (minimum bactericidal concentration); assay type: cell-based
[41] = tested on: Burkholderia cenocepacia K56-2; assay: Time kill assays (exponential and stationary phase); conditions: for killing of stationary (non-replicating) phase cells / killing of exponential (replicating) phase cells: time kill, 1×, 2×, 6 h; for killing of stationary (non-replicating) phase cells: 4× MIC (DOX 4× MIC)
[42] = tested on: Acinetobacter baumannii ATCC 17978; assay: MBC (minimum bactericidal concentration)
[43] = tested on: Escherichia vulneris CEP511; assay: MBC (minimum bactericidal concentration)
[44] = tested on: human A549 cells; conditions: cited from earlier work
[45] = tested on: B. cenocepacia K56-2; assay: In vivo antibiotic activity in infected G. mellonella; conditions: G. mellonella infected with B. cenocepacia K56-2, data not shown
[46] = tested on: B. cenocepacia K56-2 persister cells; assay: Time kill of persister cells generated with ciprofloxacin; assay type: cell-based, Burkholderia cenocepacia; conditions: for further reduction of ciprofloxacin-generated persister population: enriched persister population; for killing of ciprofloxacin-generated persister cells: in PBS, 3 h, MS-40S/MS-40 2× and 4× MIC, ciprofloxacin 5× MIC
[47] = tested on: Klebsiella pneumoniae 120310; assay type: cell-based
[48] = tested on: C. elegans DH26; conditions: for Percent survival of C. elegans: 24 h

## CC(=O)OC[C@H]1O[C@@H]([S-])[C@H](OC(C)=O)[C@@H](OC(C)=O)[C@@H]1OC(C)=O.CCP(CC)CC.[Au+] [Auranofin]
[1]
  MIC: >128 µg/mL
[2]
  MIC: 128 µg/mL
[3]
  MICs against B. mallei: 0.25 to 1 µg/mL
[4]
  MIC: 128 µg/mL
[5]
  MIC: 128 µg/mL
[6]
  MIC: >128 µg/mL
[7]
  MIC: 1 µg/mL
[8]
  MIC: 0.25 µg/mL
[9]
  MIC: 64 µg/mL
[10]
  MIC: 0.5 µg/mL
[11]
  MIC: 64 µg/mL
[12]
  MICs against members of the Bcc: ≥ 128 µg/mL
[13]
  MIC: 64 µg/mL
[14]
  MICs against Gram-negative bacteria: > 16 mg/L
[15]
  MIC: 128 µg/mL
[16]
  MIC in B. pseudomallei: 64 µg/mL
[17]
  MIC: >128 µg/mL
[18]
  MIC: >128 µg/mL
[19]
  MIC: 128 µg/mL

## C[PH](C)(C)[Au][S]CCO [MS-40, 2-mercaptoethanolatotrimethylphosphine gold(I)]
[20]
  MIC: 2 µg/mL
[1]
  MIC: 4 µg/mL
[21]
  in vivo antibiotic activity: did not observe in vivo antibiotic activity
[22]
  MBC: 2 µg/mL
[23]
  MIC: 2 µg/mL
[24]
  MBC: 4 µg/mL
[25]
  MIC: 0.25 µg/mL
[26]
  MBC: 8 * μg/mL
[2]
  MIC: 8 µg/mL
[27]
  MIC: 8 µg/mL
[28]
  MBC: 8 µg/mL
[4]
  MIC: 8 µg/mL
[29]
  MBC: 1 µg/mL
[30]; 5× MIC
  persister frequency (percent survival): No persisters
[30]; 10× MIC
  persister frequency (percent survival): No persisters
[31]
  MIC: 2 µg/mL
[32]
  MIC: 4 µg/mL
[5]
  MIC: 4 µg/mL
[33]
  MBC: 32 µg/mL
[6]
  MIC: 8 µg/mL
[7]
  MIC: 0.25 µg/mL
[8]
  MIC: 0.12 µg/mL
[34]
  MBC: 4 µg/mL
[35]
  MIC: 1 µg/mL
[36]
  MIC in the presence of 50% human serum: 128 µg/mL
[9]
  MIC: 4 µg/mL
[10]
  MIC: 0.12 µg/mL
[37]; 1.0 mg/kg, 24 h
  Galleria Survival: 100%
[37]; 1.0 mg/kg, 48 h
  Galleria Survival: 96.7%
[37]; 1.0 mg/kg, 72 h
  Galleria Survival: 96.7%
[37]; 2.0 mg/kg, 24 h
  Galleria Survival: 90.0%
[37]; 2.0 mg/kg, 48 h
  Galleria Survival: 80.0%
[37]; 2.0 mg/kg, 72 h
  Galleria Survival: 80.0%
[37]; 5.0 mg/kg, 24 h
  Galleria Survival: 96.7%
[37]; 5.0 mg/kg, 48 h
  Galleria Survival: 93.3%
[37]; 5.0 mg/kg, 72 h
  Galleria Survival: 90.0%
[37]
  percent survival of Galleria larvae: ≥ 80%
[37]; 10.0 mg/kg, 24 h
  Galleria Survival: 90.0%
[37]; 10.0 mg/kg, 48 h
  Galleria Survival: 83.3%
[37]; 10.0 mg/kg, 72 h
  Galleria Survival: 80.0%
[11]
  MIC: 4 µg/mL
[13]
  MIC: 4 µg/mL
[38]
  MIC: 0.25 µg/mL
[39]
  MIC: 2 µg/mL
[40]
  MBC: 2 µg/mL
[15]
  MIC: 8 µg/mL
[41]
  killing of stationary (non-replicating) phase cells: bactericidal
[41]; 4× MIC
  killing of exponential (replicating) phase cells: bactericidal
[42]
  MBC: 4 µg/mL
[17]
  MIC: 16 µg/mL
[43]
  MBC: 2 µg/mL
[18]
  MIC: 16 µg/mL
[44]
  toxicity in human A549 cells compared with auranofin: lower toxicity
[45]
  in vivo antibiotic activity: did not observe in vivo antibiotic activity
[46]
  further reduction of ciprofloxacin-generated persister population: 1–2 log10 CFU/mL
  killing of ciprofloxacin-generated persister cells: killed to a concentration below/close to the limit of detection
[47]
  MIC: 2 µg/mL
[19]
  MIC: 8 µg/mL

## CC(O)C[S][Au-][P+](C)(C)C (stereo not shown) [MS-40S]
[20]
  MIC: 2 µg/mL
[1]
  MIC: 8 µg/mL
[21]
  in vivo antibiotic activity: did not observe in vivo antibiotic activity
[22]
  MBC: 2 µg/mL
[24]
  MBC: 8 µg/mL
[25]
  MIC: 0.25 µg/mL
[26]
  MBC: >32 * μg/mL
[2]
  MIC: 16 µg/mL
[27]
  MIC: 16 µg/mL
[28]
  MBC: 32 µg/mL
[4]
  MIC: 8 µg/mL
[29]
  MBC: 1 µg/mL
[30]; 5× MIC
  persister frequency (percent survival): very low persister frequency
[30]; 10× MIC
  persister frequency (percent survival): no persisters
[31]
  MIC: 2 µg/mL
[32]
  MIC: 4 µg/mL
[5]
  MIC: 16 µg/mL
[33]
  MBC: 64 µg/mL
[6]
  MIC: 16 µg/mL
[7]
  MIC: 0.25 µg/mL
[8]
  MIC: 0.12 µg/mL
[34]
  MBC: 8 µg/mL
[35]
  MIC: 2 µg/mL
[36]
  MIC in the presence of 50% human serum: 128 µg/mL
[9]
  MIC: 4 µg/mL
[10]
  MIC: 0.12 µg/mL
[37]; 1.0 mg/kg, 24 h
  Galleria Survival: 96.7%
[37]; 1.0 mg/kg, 48 h
  Galleria Survival: 86.7%
[37]; 1.0 mg/kg, 72 h
  Galleria Survival: 86.7%
[37]; 2.0 mg/kg, 24 h
  Galleria Survival: 83.3%
[37]; 2.0 mg/kg, 48 h
  Galleria Survival: 83.3%
[37]; 2.0 mg/kg, 72 h
  Galleria Survival: 83.3%
[37]; 5.0 mg/kg, 24 h
  Galleria Survival: 93.3%
[37]; 5.0 mg/kg, 48 h
  Galleria Survival: 86.7%
[37]; 5.0 mg/kg, 72 h
  Galleria Survival: 86.7%
[37]
  percent survival of Galleria larvae: ≥ 80%
[37]; 10.0 mg/kg, 24 h
  Galleria Survival: 90.0%
[37]; 10.0 mg/kg, 48 h
  Galleria Survival: 76.7%
[37]; 10.0 mg/kg, 72 h
  Galleria Survival: 76.7%
[11]
  MIC: 4 µg/mL
[13]
  MIC: 2 µg/mL
[38]
  MIC: 0.5 µg/mL
[48]; 4 μg/mL
  Percent survival of C. elegans: 100%
[48]; 8 μg/mL
  Percent survival of C. elegans: 100%
[48]; 16 μg/mL
  Percent survival of C. elegans: 100%
[48]; 32 μg/mL
  Percent survival of C. elegans: 100%
[48]; 64 μg/mL
  Percent survival of C. elegans: 100%
[48]; 128 μg/mL
  Percent survival of C. elegans: 97.6%
[48]; 256 μg/mL
  Percent survival of C. elegans: 85.7%
[48]; highest concentration with 100 percent survival divided by the compound's MIC
  Survival100/MIC Ratio: 8
[39]
  MIC: 4 µg/mL
[40]
  MBC: 8 µg/mL
[15]
  MIC: 8 µg/mL
[41]; 4× MIC, exponential phase
  reduction of the culture in time kill: approximately three
[41]
  killing of stationary (non-replicating) phase cells: bactericidal
[41]; 4× MIC
  killing of exponential (replicating) phase cells: bactericidal
[42]
  MBC: 8 µg/mL
[17]
  MIC: 32 µg/mL
[43]
  MBC: 4 µg/mL
[18]
  MIC: 16 µg/mL
[45]
  in vivo antibiotic activity: did not observe in vivo antibiotic activity
[46]
  further reduction of ciprofloxacin-generated persister population: 1–2 log10 CFU/mL
  killing of ciprofloxacin-generated persister cells: killed to a concentration below/close to the limit of detection
[47]
  MIC: 4 µg/mL
[19]
  MIC: 16 µg/mL
